From ChEMBL document CHEMBL1772985, “N-(3-fluoro-4-(4-(2-methoxy or 2,3-dichlorophenyl)piperazine-1-yl)butyl)arylcarboxamides as selective dopamine D3 receptor ligands: critical role of the carboxamide linker for D3 receptor selectivity” (J Med Chem, 2011)

How the values were obtained:
D(2) dopamine receptor = D(2) dopamine receptor (Homo sapiens, UniProt P14416); assay: Displacement of [125I]-IABN from human dopamine D2L receptor expressed in HEK293 cells after 60 mins by gamma counting; assay type: cell-based
Sequence of D(2) dopamine receptor (P14416 whole entry): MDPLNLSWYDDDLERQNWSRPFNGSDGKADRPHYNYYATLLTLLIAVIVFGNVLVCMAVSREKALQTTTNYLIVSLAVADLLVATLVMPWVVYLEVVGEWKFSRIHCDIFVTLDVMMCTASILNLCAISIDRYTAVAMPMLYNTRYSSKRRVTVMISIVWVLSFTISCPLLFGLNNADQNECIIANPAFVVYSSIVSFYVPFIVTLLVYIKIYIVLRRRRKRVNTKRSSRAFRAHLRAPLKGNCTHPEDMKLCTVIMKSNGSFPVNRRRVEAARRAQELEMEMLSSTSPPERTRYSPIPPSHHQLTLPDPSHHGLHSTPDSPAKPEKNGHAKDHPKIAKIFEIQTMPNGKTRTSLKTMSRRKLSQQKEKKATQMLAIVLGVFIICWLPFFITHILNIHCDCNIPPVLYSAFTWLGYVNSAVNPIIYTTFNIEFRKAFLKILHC

[1] = target: T1, 5-hydroxytryptamine receptor 1A (Homo sapiens) (UniProt P08908); assay: Agonist activity at 5HT1A receptor assessed as stimulation of [35S]GTPgammaS binding relative to control; assay type: functional; design: concentration or dose not given beside the values
T1 sequence (whole entry): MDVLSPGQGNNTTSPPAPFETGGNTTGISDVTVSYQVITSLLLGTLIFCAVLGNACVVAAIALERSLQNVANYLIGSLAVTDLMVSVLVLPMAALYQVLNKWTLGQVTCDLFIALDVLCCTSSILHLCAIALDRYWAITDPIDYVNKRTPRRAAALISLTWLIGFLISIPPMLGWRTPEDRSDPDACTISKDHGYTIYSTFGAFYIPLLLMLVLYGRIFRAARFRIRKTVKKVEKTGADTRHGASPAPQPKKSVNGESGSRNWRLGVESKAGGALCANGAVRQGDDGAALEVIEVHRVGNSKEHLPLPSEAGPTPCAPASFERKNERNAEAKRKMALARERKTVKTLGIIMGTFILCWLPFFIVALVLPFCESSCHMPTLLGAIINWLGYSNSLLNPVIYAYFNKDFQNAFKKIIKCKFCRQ

[2] = target: T2, 5-hydroxytryptamine receptor 1A (Homo sapiens, UniProt P08908); assay: Agonist activity at 5HT1A receptor assessed as stimulation of [35S]GTPgammaS binding; assay type: functional
T2 sequence (P08908 whole entry): T1 sequence (whole entry)

[3] = target: T2, 5-hydroxytryptamine receptor 1A; assay: Displacement of [3H]8-OH-DPAT from 5HT1A receptor
[4] = target: 5-hydroxytryptamine receptor 2A (Homo sapiens, UniProt P28223)
Sequence of 5-hydroxytryptamine receptor 2A (P28223 whole entry): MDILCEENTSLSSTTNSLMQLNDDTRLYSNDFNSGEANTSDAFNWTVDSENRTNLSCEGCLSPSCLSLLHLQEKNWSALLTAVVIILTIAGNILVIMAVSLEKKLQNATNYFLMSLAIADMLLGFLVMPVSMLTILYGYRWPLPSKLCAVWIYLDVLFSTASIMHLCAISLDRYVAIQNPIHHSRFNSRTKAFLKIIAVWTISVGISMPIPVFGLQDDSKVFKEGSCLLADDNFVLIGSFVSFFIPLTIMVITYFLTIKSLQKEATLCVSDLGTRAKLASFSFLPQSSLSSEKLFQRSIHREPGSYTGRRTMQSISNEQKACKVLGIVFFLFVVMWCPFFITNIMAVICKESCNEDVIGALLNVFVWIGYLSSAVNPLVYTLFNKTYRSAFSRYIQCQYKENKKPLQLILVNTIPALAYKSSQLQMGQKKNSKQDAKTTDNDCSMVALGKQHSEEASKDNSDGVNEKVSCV

Homo sapiens = species on record: Homo sapiens; assay: Selectivity ratio Ki for human dopamine D2L receptor to Ki for human dopamine D3 receptor
D(3) dopamine receptor [5] = target: T3, D(3) dopamine receptor (Homo sapiens, UniProt P35462); assay: Antagonist activity at human dopamine D3 receptor expressed in CHO-K1 cells assessed as inhibition of dopamine-induced recruitment of beta-arrestin-2 after 90 mins by beta-galactosidase assay; assay type: functional, cell-based
T3 sequence (P35462 whole entry): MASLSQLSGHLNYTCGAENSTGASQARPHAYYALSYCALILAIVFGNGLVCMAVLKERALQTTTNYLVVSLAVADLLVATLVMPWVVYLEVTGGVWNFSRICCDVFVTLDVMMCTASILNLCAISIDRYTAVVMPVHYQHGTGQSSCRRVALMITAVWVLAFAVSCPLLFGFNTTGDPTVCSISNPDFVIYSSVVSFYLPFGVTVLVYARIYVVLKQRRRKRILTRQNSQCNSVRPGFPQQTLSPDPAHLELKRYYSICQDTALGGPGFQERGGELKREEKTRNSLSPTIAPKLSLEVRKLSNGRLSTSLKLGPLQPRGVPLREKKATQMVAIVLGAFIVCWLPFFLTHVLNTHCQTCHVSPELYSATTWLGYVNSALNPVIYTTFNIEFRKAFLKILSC

D(3) dopamine receptor [6] = target: T3, D(3) dopamine receptor; assay: Antagonist activity at human dopamine D3 receptor expressed in CHOp cells assessed as inhibition of quinpirole-induced mitogenesis; assay type: functional, cell-based
D(3) dopamine receptor [7] = target: T3, D(3) dopamine receptor; assay: Displacement of [125I]-IABN from human dopamine D3 receptor expressed in HEK293 cells after 60 mins by gamma counting; assay type: cell-based
D(3) dopamine receptor [8] = target: T3, D(3) dopamine receptor; assay: Antagonist activity at human dopamine D3 receptor expressed in CHO-K1 cells assessed as inhibition of dopamine-induced recruitment of beta-arrestin-2 at 10 uM after 90 mins by beta-galactosidase assay; assay type: functional, cell-based
D(4) dopamine receptor = target: T4, D(4) dopamine receptor (Homo sapiens, UniProt P21917); assay: Displacement of [125I]-IABN from human dopamine D4 receptor expressed in HEK293 cells after 60 mins by gamma counting; assay type: cell-based
T4 sequence (P21917 whole entry): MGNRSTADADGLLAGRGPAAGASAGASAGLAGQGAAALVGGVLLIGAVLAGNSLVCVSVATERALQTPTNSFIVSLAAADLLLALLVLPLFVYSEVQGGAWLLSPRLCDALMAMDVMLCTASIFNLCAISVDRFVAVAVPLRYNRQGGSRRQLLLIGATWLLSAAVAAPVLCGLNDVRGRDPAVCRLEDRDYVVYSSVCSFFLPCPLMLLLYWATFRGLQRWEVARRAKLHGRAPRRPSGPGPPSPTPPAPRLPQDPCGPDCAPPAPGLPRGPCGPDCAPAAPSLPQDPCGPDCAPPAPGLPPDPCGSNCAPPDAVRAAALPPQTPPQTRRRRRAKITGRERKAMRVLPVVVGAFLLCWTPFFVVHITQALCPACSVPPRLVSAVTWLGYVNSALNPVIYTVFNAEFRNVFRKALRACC

[9] = target: T1, 5-hydroxytryptamine receptor 1A (Homo sapiens); assay: Displacement of [3H]8-OH-DPAT from 5HT1A receptor at 10 uM
[10] = Binding affinity to human dopamine D2/E2 loop of D3 receptor expressed in HEK293 cells; assay type: cell-based
[11] = Binding affinity to human dopamine D2/D3 receptor chimera C expressed in HEK293 cells; assay type: cell-based
[12] = Binding affinity to human dopamine D2/D3 receptor chimera B expressed in HEK293 cells; assay type: cell-based

SMILES	Ki (D(2) dopamine receptor)	Activity [1]	EC50 [2]	Ki [3]	Ki [4]	Ratio Ki (Homo sapiens)	IC50 (D(3) dopamine receptor [5])	IC50 (D(3) dopamine receptor [6])	Ki (D(3) dopamine receptor [7])	inhibition (D(3) dopamine receptor [8])	Ki (D(4) dopamine receptor)	inhibition [9]	Kd [10]	Kd [11]	Kd [12]
COc1ccccc1N1CCN(CC(F)CCNC(=O)c2ccc3c(c2)Cc2ccccc2-3)CC1 (configuration not stated)	2890 nM			299 nM	> 10000 nM	286		214 nM	10.1 nM	< 50%	3180 nM				
FC(CCNCc1ccc2c(c1)Cc1ccccc1-2)CN1CCN(c2cccc(Cl)c2Cl)CC1 (configuration not stated)	5270 nM					11			467 nM						
O=C(NC/C=C/CN1CCN(c2cccc(Cl)c2Cl)CC1)c1ccc(-c2ccccn2)cc1						133									
O=C(NCCC(F)CN1CCN(c2cccc(Cl)c2Cl)CC1)c1cc2ccccc2o1 (configuration not stated)													0.08 nM	0.02 nM	0.02 nM
O=C(NCCC(F)CN1CCN(c2cccc(Cl)c2Cl)CC1)c1cc2ccccc2s1 (configuration not stated)	472 nM			2140 nM	3290 nM	163	3770 nM	17 nM	2.9 nM						
O=C(NCCC(F)CN1CCN(c2cccc(Cl)c2Cl)CC1)c1ccc2c(c1)Cc1ccccc1-2 (configuration not stated)	4260 nM			6000 nM	4800 nM	1640		800 nM	2.6 nM	< 50%					
COc1ccccc1N1CCN(CC(F)CCNC(=O)c2cc3ccccc3[nH]2)CC1 (configuration not stated)	421 nM	83%	1430 nM	101 nM	3240 nM	44		820 nM	9.5 nM	< 50%	1490 nM				
O=C(NCCC(F)CN1CCN(c2cccc(Cl)c2Cl)CC1)c1cc2ccccc2[nH]1 (configuration not stated)	526 nM	88%	2140 nM	223 nM	212 nM	131	1220 nM		4 nM		3360 nM				
CN(CCC(O)CN1CCN(c2cccc(Cl)c2Cl)CC1)Cc1ccc2c(c1)Cc1ccccc1-2 (configuration not stated)	869 nM					5			162 nM						
CN(CCC(F)CN1CCN(c2cccc(Cl)c2Cl)CC1)Cc1ccc2c(c1)Cc1ccccc1-2 (configuration not stated)	2060 nM				2580 nM	5		918 nM	393 nM			< 50%			
OC(CCNCc1ccc2c(c1)Cc1ccccc1-2)CN1CCN(c2cccc(Cl)c2Cl)CC1 (configuration not stated)	2090 nM					16			134 nM						

More lines, in order of falling Ki (D(2) dopamine receptor), values ahead:

Ki (D(2) dopamine receptor)	Activity [1]	EC50 [2]	Ki [3]	Ki [4]	Ratio Ki (Homo sapiens)	IC50 (D(3) dopamine receptor [5])	IC50 (D(3) dopamine receptor [6])	Ki (D(3) dopamine receptor [7])	inhibition (D(3) dopamine receptor [8])	Ki (D(4) dopamine receptor)	inhibition [9]	SMILES	Kd [10]	Kd [11]	Kd [12]
390 nM	73%	71.6 nM	49 nM	2060 nM	19	699 nM	390 nM	20.5 nM				COc1ccccc1N1CCN(CC(F)CCNC(=O)c2ccc(-c3ccccn3)cc2)CC1 (configuration not stated)			
378 nM		1080 nM	159 nM	98 nM			256 nM	6.2 nM		3090 nM		O=C(NCCC(F)CN1CCN(c2cccc(Cl)c2Cl)CC1)c1ccc(-c2ccccn2)cc1 (configuration not stated)			
329 nM	60%	134 nM	37.9 nM	4800 nM	11		440 nM	28.6 nM				COc1ccccc1N1CCN(CC(F)CCNC(=O)c2cc3ccccc3o2)CC1 (configuration not stated)			
313 nM					3			104 nM				CCCN(CCCCN1CCN(c2cccc(Cl)c2Cl)CC1)Cc1ccc2ccccc2c1			
302 nM			1170 nM	3540 nM	66	2990 nM	1140 nM	4.6 nM				COc1ccc2[nH]c(C(=O)NCCC(F)CN3CCN(c4ccccc4OC)CC3)cc2c1 (configuration not stated)			
279 nM			501 nM	274 nM	35		1430 nM	8 nM	< 50%			COc1ccc2oc(C(=O)NCCC(F)CN3CCN(c4cccc(Cl)c4Cl)CC3)cc2c1 (configuration not stated)			
274 nM	76%	600 nM	73 nM	3000 nM	20	1240 nM	780 nM	13.9 nM				COc1ccc2oc(C(=O)NCCC(F)CN3CCN(c4ccccc4OC)CC3)cc2c1 (configuration not stated)			
269 nM					2			129 nM				CCCN(CCCCN1CCN(c2cccc(Cl)c2Cl)CC1)Cc1ccc2c(c1)Cc1ccccc1-2			
241 nM	57%	440 nM	139 nM	3030 nM	63	3210 nM	83 nM	3.8 nM				COc1ccccc1N1CCN(CC(F)CCNC(=O)c2cc3ccccc3s2)CC1 (configuration not stated)			
230 nM				272 nM	153		320 nM	1.5 nM	< 50%		< 50%	COc1ccc2[nH]c(C(=O)NCCC(F)CN3CCN(c4cccc(Cl)c4Cl)CC3)cc2c1 (configuration not stated)			
196 nM					3			71.5 nM				CCCN(CCCCN1CCN(c2ccccc2OC)CC1)Cc1ccc2c(c1)Cc1ccccc1-2			
195 nM				1910 nM	32		255 nM	6.1 nM	< 50%		< 50%	O=C(NCCC(F)CN1CCN(c2cccc(Cl)c2Cl)CC1)c1ccc2ccccc2c1 (configuration not stated)			
162 nM					2							CCCN(CCCCN1CCN(c2cccc(Cl)c2Cl)CC1)Cc1cc2ccccc2s1			
119 nM					1.5			80.8 nM				CCCN(CCCCN1CCN(c2ccccc2OC)CC1)Cc1ccc2ccccc2c1			
69.9 nM					1			67.9 nM				CCCN(CCCCN1CCN(c2ccccc2OC)CC1)Cc1cc2ccccc2s1			
